Source: patent publication US8507493B2 (AbbVie Inc., priority 2009, dated 2013)

target: T1, human 11β-HSD1 (Homo sapiens, UniProt P28845); assay: Human 11β-HSD1 enzymatic SPA assay; format: biochemical; conditions: truncated (24-287aa) human 11β-HSD1, apparent Ki from IC50 by Cheng-Prusoff
T1 construct: truncated (24-287aa) human 11β-HSD1 enzyme; made in house; host or cells: E. coli (lysate, not purified)
Protocol: The ability of test compounds to inhibit human 11β-HSD1 enzymatic activity in vitro was evaluated in a Scintillation Proximity Assay (SPA). Tritiated-cortisone substrate, NADPH cofactor and titrated compound were incubated with truncated (24-287aa) human 11β-HSD1 enzyme at room temperature to allow the conversion to cortisol to occur. The reaction was stopped by adding a non-specific 11β-HSD inhibitor, glycyrrhetinic acid. The tritiated cortisol was captured by a mixture of an anti-cortisol monoclonal antibody and SPA beads coated with anti-mouse antibodies. The reaction plate was shaken at room temperature and the radiolabel bound to SPA beads was then measured on a scintillation counter. The 11β-HSD1 assay was carried out in 96-well microtiter plates in a total volume of […]. To start the assay, 188 μL of master mix which contained 75 nM ^3H-cortisone, 100 nM cortisone and 181 μM NADPH was added to the wells. In order to drive the reaction in the 11β-reductase direction, 1 mM glucose-6-phosphate (G-6-P) and 1 U/mL G-6-P dehydrogenase were also added as a NADPH generating system. Solid compound was dissolved in dimethyl sulfoxide to make a 10 mM stock followed by a subsequent 10-fold serial dilution with dimethyl sulfoxide. Each compound solution in dimethyl sulfoxide was 10-fold diluted in Tris/EDTA buffer (pH 7.4). 22 μL of titrated compound were then added in duplicate to the substrate. Reactions were initiated by the addition of 10 μL of 0.1 mg/mL E. coli lysates overexpressing 11β-HSD1 enzyme. After shaking and incubating plates for 30 minutes at room temperature, reactions were stopped by adding 10 μL of 1 mM glycyrrhetinic acid. The product, tritiated cortisol, was captured by adding 10 μL of 1 μM monoclonal mouse anti-cortisol antibodies and 50 μL of SPA beads coated with anti-mouse antibodies. After shaking for 30 minutes, plates were read in a Microbeta scintillation counter. Percent inhibition was calculated based on the background and the maximal signal. Wells that contained substrate without compound or enzyme were used as the background, while the wells that contained substrate and enzyme without any compound were considered as maximal signal. Percent of inhibition of each compound was calculated relative to the maximal signal and IC50 curves were generated. Assuming competitive inhibition the Cheng-Prusoff equation was used to calculate apparent Ki values from the IC50 values. This assay was applied to 11β-HSD2 as well, whereby 6 nM tritiated cortisol and 250 uM NAD^+ were used as substrate and cofactor, respectively.

T1 sequence (P28845 24-287): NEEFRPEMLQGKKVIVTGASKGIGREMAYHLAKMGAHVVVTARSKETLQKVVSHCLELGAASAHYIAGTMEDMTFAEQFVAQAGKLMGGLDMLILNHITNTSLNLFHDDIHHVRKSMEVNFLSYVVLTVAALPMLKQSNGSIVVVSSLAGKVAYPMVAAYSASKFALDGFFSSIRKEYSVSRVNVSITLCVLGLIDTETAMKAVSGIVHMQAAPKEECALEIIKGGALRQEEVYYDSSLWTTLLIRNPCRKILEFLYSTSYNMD

Structure (SMILES)	Ki
CC(C)(/C(=N\C#N)N[C@@H]1[C@@H]2C[C@@H]3C[C@H]1C[C@@](C(=O)O)(C3)C2)N1CCN(c2ccc(C(F)(F)F)cn2)CC1 [Example 30, (E)-4-[((1E)-N-Cyano-2-methyl-2-{4-[5-(trifluoromethyl)pyridin-2-yl]piperazin-1-yl}propanimidoyl)amino]adamantane-1-carboxylic acid]	> 1000 nM
CC(C)(C(=NC#N)NC1C2CC3CC1CC(C(N)=O)(C3)C2)N1CCN(c2ccc(C(F)(F)F)cn2)CC1 (centres unmarked) [Example 31, (E)-4-[((1E)-N-Cyano-2-methyl-2-{4-[5-(trifluoromethyl)pyridin-2-yl]piperazin-1-yl}propanimidoyl)amino]adamantane-1-carboxamide]	100 to 1000 nM
CC1(C)/C(=N/C#N)N([C@@H]2[C@@H]3C[C@@H]4C[C@H]2C[C@@](S(C)(=O)=O)(C4)C3)CC1COc1ccc(C#N)cn1 (some centres unmarked) [Example 33, (2Z)-4-{[(5-Cyanopyridin-2-yl)oxy]methyl}-3,3-dimethyl-1-[(E)-5-(methylsulfonyl)-2-adamantyl]pyrrolidin-2-ylidenecyanamide]	100 to 1000 nM
Cc1c(Cl)cccc1S(=O)(=O)N1CCC[C@H](C(=NC#N)NC2CCCCC2)C1 [Example 35, (3S)-1-[(3-Chloro-2-methylphenyl)sulfonyl]-N′-cyano-N-cyclohexylpiperidine-3-carboximidamide]	> 1000 nM
CC(C)(Oc1ccc(Cl)cc1)/C(=N\C#N)N[C@@H]1[C@@H]2C[C@@H]3C[C@H]1C[C@@](C(=O)O)(C3)C2 [Example 36, (E)-4-{[(1E)-2-(4-Chlorophenoxy)-N-cyano-2-methylpropanimidoyl]amino}adamantane-1-carboxylic acid]	100 to 1000 nM
CC(C)(Oc1ccc(Cl)cc1)/C(=N\C#N)N[C@@H]1[C@@H]2C[C@@H]3C[C@H]1C[C@@](C#N)(C3)C2 [Example 37, (1E)-2-(4-Chlorophenoxy)-N′-cyano-N-[(E)-5-cyano-2-adamantyl]-2-methylpropanimidamide]	10 to 100 nM
CC(C)(Oc1ccc(Cl)cc1)/C(=N\C#N)NC12CC3CC(CC1C3)C2 [Example 38, (1E)-2-(4-Chlorophenoxy)-N′-cyano-N-hexahydro-2,5-methanopentalen-3a(1H)-yl-2-methylpropanimidamide]	10 to 100 nM
CC(C)(Oc1ccc(Cl)cc1)C(=NC#N)NC1C2CC3CC1CN(C3)C2 (centres unmarked) [Example 39, (1E)-N-[(4s)-1-Azatricyclo[3.3.1.1^3,7]dec-4-yl]-2-(4-chlorophenoxy)-N′-cyano-2-methylpropanimidamide]	> 1000 nM
CC(C)(Oc1ccc(Cl)cc1)C(=NC#N)NC1CN2CCC1CC2 (centres unmarked) [Example 40, N-1-Azabicyclo[2.2.2]oct-3-yl-2-(4-chlorophenoxy)-N′-cyano-2-methylpropanimidamide]	> 1000 nM
CC(C)(Oc1ccc(Cl)cc1)C(=NC#N)NC1CCCCCCC1 [Example 41, 2-(4-Chlorophenoxy)-N′-cyano-N-cyclooctyl-2-methylpropanimidamide]	10 to 100 nM
CC(C)(Oc1ccc(Cl)cc1)C(=NC#N)NC1CC2CCC1C2 (stereo not drawn) [Example 42, N-[exo-Bicyclo[2.2.1]hept-2-yl]-2-(4-chlorophenoxy)-N′-cyano-2-methylpropanimidamide]	100 to 1000 nM
CC(C)(Oc1ccc(Cl)cc1)C(=NC#N)NC12CC3CC(CC(C3)C1)C2 [Example 43]	10 to 100 nM
CC(C)(Oc1ccc(F)cc1F)C(=NC#N)NC1C2CC3CC1CC(S(C)(=O)=O)(C3)C2 (centres unmarked) [Example 45, (1E)-N′-cyano-2-(2,4-difluorophenoxy)-2-methyl-N-[(E)-5-(methylsulfonyl)adamantan-2-yl]propanimidamide]	≤ 10 nM
CC(C)(Oc1ccc(Cl)cc1)C(=NC#N)NC12CCC(C(=O)O)(CC1)CC2 [Example 46, 4-{[2-(4-chlorophenoxy)-N-cyano-2-methylpropanimidoyl]amino}bicyclo[2.2.2]octane-1-carboxylic acid]	> 1000 nM
CC(C)(Oc1ccc(Cl)cc1)C(=NC#N)NC12CCC(C(N)=O)(CC1)CC2 [Example 47, 4-{[2-(4-chlorophenoxy)-N-cyano-2-methylpropanimidoyl]amino}bicyclo[2.2.2]octane-1-carboxamide]	10 to 100 nM
COC(=O)C12CC3CC(C1)C(NC(=NC#N)C(C)(C)N1CC4CC(c5ccc(Cl)cc5)C4C1)C(C3)C2 (stereo not drawn) [Example 48, methyl(E)-4-({(1E)-2-[(1R*,5S*,6R*)-6-(4-chlorophenyl)-3-azabicyclo[3.2.0]hept-3-yl]-N-cyano-2-methylpropanimidoyl}amino)adamantane-1-carboxylate]	100 to 1000 nM
CC(C)(Oc1ccccc1)C(=NC#N)NC1C2CC3CC1CC(O)(C3)C2 (centres unmarked) [Example 49, (1E)-N′-cyano-N-[(E)-5-hydroxyadamantan-2-yl]-2-methyl-2-phenoxypropanimidamide]	10 to 100 nM
CC(C)(Oc1ccccc1)/C(=N\C#N)N[C@@H]1[C@@H]2C[C@@H]3C[C@H]1C[C@@](C(N)=O)(C3)C2 [Example 50, (E)-4-{[(1E)-N-cyano-2-methyl-2-phenoxypropanimidoyl]amino}adamantane-1-carboxamide]	≤ 10 nM
CC(C)(Oc1ccc(F)cc1F)C(=NC#N)NC1C2CC3CC1CC(O)(C3)C2 (centres unmarked) [Example 51, (1E)-N′-cyano-2-(2,4-difluorophenoxy)-N-[(E)-5-hydroxyadamantan-2-yl]-2-methylpropanimidamide]	≤ 10 nM
CC(C)(Oc1ccc(F)cc1F)/C(=N\C#N)N[C@@H]1[C@@H]2C[C@@H]3C[C@H]1C[C@@](C#N)(C3)C2 [Example 52, (1E)-N′-cyano-N-[(E)-5-cyanoadamantan-2-yl]-2-(2,4-difluorophenoxy)-2-methylpropanimidamide]	10 to 100 nM
CC(C)(Oc1ccc(F)cc1F)C(=NC#N)NC1CC2CCC1C2 (stereo not drawn) [Example 56, N-[(exo)-bicyclo[2.2.1]hept-2-yl]-N-cyano-2-(2,4-difluorophenoxy)-2-methylpropanimidamide]	≤ 10 nM

Continued, values first:

Ki	Structure (SMILES)
10 to 100 nM	CC(C)(Oc1ccc(F)cc1F)/C(=N\C#N)N[C@@H]1[C@@H]2C[C@@H]3C[C@H]1C[C@@](S(N)(=O)=O)(C3)C2 [Example 57]
100 to 1000 nM	CC(C)(Oc1ccc(Cl)cn1)/C(=N\C#N)N[C@@H]1[C@@H]2C[C@@H]3C[C@H]1C[C@@](O)(C3)C2 [Example 58, (1E)-2-[(5-chloropyridin-2-yl)oxy]-N′-cyano-N-[(E)-5-hydroxyadamantan-2-yl]-2-methylpropanimidamide]
100 to 1000 nM	CC(C)(Oc1ccc(Cl)cn1)C(=NC#N)NC1C2CC3CC1CC(C#N)(C3)C2 (centres unmarked) [Example 59, (1E)-2-[(5-chloropyridin-2-yl)oxy]-N′-cyano-N-[(E)-5-cyanoadamantan-2-yl]-2-methylpropanimidamide]
10 to 100 nM	CC(C)(Oc1ccc(Cl)cc1F)C(=NC#N)NC12CC3CC(CC(C3)C1)C2 [Example 60]
100 to 1000 nM	CC(C)(Oc1ccc(Cl)cc1F)C(=NC#N)NC1CCCCCCC1 [Example 61, 2-(4-chloro-2-fluorophenoxy)-N′-cyano-N-cyclooctyl-2-methylpropanimidamide]
10 to 100 nM	CC(C)(Oc1ccc(Cl)cc1F)C(=NC#N)NC1C2CC3CC(C2)CC1C3 (centres unmarked) [Example 62, (1E)-N-[(E)-adamantan-2-yl]-2-(4-chloro-2-fluorophenoxy)-N-cyano-2-methylpropanimidamide]
10 to 100 nM	COC(=O)C12CC3CC(C1)C(N/C(=N/C#N)C(C)(C)Oc1ccc(Cl)cc1F)C(C3)C2 (centres unmarked) [Example 63, methyl(E)-4-{[(1E)-2-(4-chloro-2-fluorophenoxy)-N-cyano-2-methylpropanimidoyl]amino}adamantane-1-carboxylate]
≤ 10 nM	CC(C)(Oc1ccccc1)/C(=N\C#N)NC1C2CC3CC1CC(S(C)(=O)=O)(C3)C2 (centres unmarked) [Example 64, (1E)-N-cyano-2-methyl-N-[(E)-5-(methylsulfonyl)adamantan-2-yl]-2-phenoxypropanimidamide]
100 to 1000 nM	CC(C)(Oc1ccc(F)cc1F)C(=NC#N)NC1CCCCCCC1 [Example 65, N′-cyano-N-cyclooctyl-2-(2,4-difluorophenoxy)-2-methylpropanimidamide]
100 to 1000 nM	CC(C)(Oc1ccc(Cl)cc1F)C(=NC#N)NC1CC2CCC1C2 (stereo not drawn) [Example 66, N-(exo-bicyclo[2.2.1]hept-2-yl)-2-(4-chloro-2-fluorophenoxy)-N-cyano-2-methylpropanimidamide]
100 to 1000 nM	CC(C)(Oc1ccc(Cl)cn1)C(=NC#N)NC1C2CC3CC1CC(S(C)(=O)=O)(C3)C2 (centres unmarked) [Example 67, (1E)-2-[(5-chloropyridin-2-yl)oxy]-N-cyano-2-methyl-N-[(E)-5-(methylsulfonyl)adamantan-2-yl]propanimidamide]
